How the values were obtained:
post herpetic neuralgia [1] = assay: Clinical course of zoster-associated pain in patients, in words (case reports); type: in vivo, human; settings: for effect on continued pain after herpes zoster: Example 6: person, diclofenac sodium suppository 1 to 2 times per day in addition to morphine hydrochloride 30 mg/day
Description: A person. They were diagnosed as right face herpes zoster. Anti-virus agent was administered by drops for 5 days. Since dull pain remained at the same region thereafter, oral administration of mecobalamin of 1500 μg/day and sodium loxoprofen of 180 mg/day was started after the consultation. After administration for 2 weeks, VAS evaluation of pain dropped to 1 point, and the administration of sodium loxoprofen stopped with administration of mecobalamin maintained. Mecobalamin was further administered, and although VAS evaluations were 1 to 3 points for about 3 months, sense of incongruity and spasmodic sharp pain of neuralgia after herpes zoster continued, and therefore oral administration of a 100 mg capsule of IPD 3 times per day was started in the same manner as in Example 1 with administration of mecobalamin maintained. After 1 week of the administration of suplatast tosylate, the post herpetic neuralgia disappeared, and VAS evaluation became 0 point. […] Then administration was stopped.
A person. Painful rashes appeared from right chest to the back, and they were diagnosed as herpes zoster. Anti-virus agent was administered by dropping for 1 week, but the pain continued. Diclofenac sodium suppository was used by 1 to 2 times per day in addition to administration of morphine hydrochloride 30 mg/day, but both of them were no effect, and further nerve block treatment was also no effect. After 6 months of the consultation (7 points at VAS evaluation), oral administration of a 100 mg capsule of IPD 3 times per day was started in the same manner as in Example 1, the post herpetic neuralgia decreased to 5 points at VAS evaluation by the treatment for 3 weeks, although the administration of morphine was invalid.

post herpetic neuralgia [2] = assay: Visual Analogue Scale (VAS) evaluation of pain in herpes zoster / post herpetic neuralgia patients (case reports); type: in vivo, human; settings: for VAS evaluation of pain: mecobalamin 1500 μg/day and sodium loxoprofen 180 mg/day oral together, after 2 weeks
Description: The present invention will be described below in more detail with reference to examples and test examples. However, the invention is not limited by these examples. The sharp pain in examples was evaluated by the Visual Analogue Scale evaluation (hereinafter abbreviated to “VAS evaluation”), in which the grade of pain of each patient is expressed by himself or herself on a 100 mm straight line. In VAS evaluation, the highest score is 10 points (100 mm), and the point becomes smaller according to the decrease of the pain. (refer to Anesth Analog 1993, 77, 1041-1047 etc.)

## CCOCC(O)COc1ccc(NC(=O)CC[S+](C)C)cc1.Cc1ccc(S(=O)(=O)[O-])cc1 (racemic) [suplatast tosylate, (±)-[2-[4-(3-ethoxy-2-hydroxypropoxy)phenylcarbamoyl]ethyl]dimethylsulfonium p-toluenesulfonate]
Post herpetic neuralgia [1]; Example 3: person, oral suplatast tosylate and mecobalamin continued for further about 1 month
  symptoms on continued administration: no symptom was observed
Post herpetic neuralgia [2]; Example 1: person, PHN, 100 mg capsule of IPD 3 times per day oral, after 3 days, 5 points before
  VAS evaluation: 0 point
Post herpetic neuralgia [2]; Example 2: person, PHN, 100 mg capsule of IPD 3 times per day oral, after 1.5 months, 7 points before
  VAS evaluation: 2 points
Post herpetic neuralgia [2]; Example 3: person, PHN, 100 mg capsule of IPD 3 times per day oral, mecobalamin maintained, after 1 week, 1 to 3 points before
  VAS evaluation: 0 point
Post herpetic neuralgia [2]; Example 4: person, PHN, 100 mg capsule of IPD 3 times per day oral, after 1 month, 0.5 to 1 point before
  VAS evaluation: 0.1 to 0.2 point
Post herpetic neuralgia [2]; Example 5: person, PHN, 100 mg capsule of IPD 3 times per day oral, by continuation of the administration
  VAS evaluation: 0.7 point
Post herpetic neuralgia [2]; Example 5: person, PHN, 100 mg capsule of IPD 3 times per day oral, first decrease, 5 points before
  VAS evaluation: 1 point
Post herpetic neuralgia [2]; Example 6: person, PHN, 100 mg capsule of IPD 3 times per day oral, treatment for 3 weeks, 7 points before
  VAS evaluation: 5 points

## O=C(O)Cc1ccccc1Nc1c(Cl)cccc1Cl [Diclofenac sodium]
Post herpetic neuralgia [1]
  effect on continued pain after herpes zoster: no effect

## C/C1=C2/[N-][C@H]([C@H](CC(N)=O)[C@@]2(C)CCC(=O)NC[C@@H](C)OP(=O)([O-])O[C@H]2[C@@H](O)[C@@H](n3cnc4cc(C)c(C)cc43)O[C@@H]2CO)[C@]2(C)N=C(/C(C)=C3N=C(/C=C4N=C1[C@@H](CCC(N)=O)C\4(C)C)[C@@H](CCC(N)=O)[C@]\3(C)CC(N)=O)[C@@H](CCC(N)=O)[C@]2(C)CC(N)=O.[CH3-].[Co+3] [mecobalamin]
Post herpetic neuralgia [2]; Example 1: person, mecobalamin 1500 μg/day oral continued, neuralgia not changed for 3 years after consultation
  VAS evaluation: 5 points
Post herpetic neuralgia [2]; Example 2: person, mecobalamin 1500 μg/day continued, PHN did not change for 8 months after consultation
  VAS evaluation: 7 points
Post herpetic neuralgia [2]; Example 3: person
  VAS evaluation of pain: 1 point
Post herpetic neuralgia [2]; Example 3: person, mecobalamin alone further administered, for about 3 months
  VAS evaluations: 1 to 3 points
Post herpetic neuralgia [2]; Example 4: person, mecobalamin 1500 μg/day for 1.5 months, 5 points before
  VAS evaluation: 0.5 to 1 point

## CN1CC[C@]23c4c5ccc(O)c4O[C@H]2[C@@H](O)C=C[C@H]3[C@H]1C5.Cl [morphine hydrochloride]
Post herpetic neuralgia [1]
  effect on continued pain after herpes zoster: no effect

## CC(C(=O)[O-])c1ccc(CC2CCCC2=O)cc1.[Na+] (stereo not shown) [sodium loxoprofen]
Post herpetic neuralgia [2]; Example 3: person
  VAS evaluation of pain: 1 point

From patent US7897645B2, “Herpesvirus-derived therapeutic agent for pain” (Taiho Pharmaceutical Co., Ltd., priority 2005, dated 2011)
